Data published in patent US20260109712A1, “RIFAMYCINS FOR NONTUBERCULOUS MYCOBACTERIA” (priority 2022, published 2026).
Converted amounts (≈) assume the structure as drawn.

How the values were obtained:
Type in all cases: cell-based, Mycobacterium abscessus
M. abscessus ATCC 19977 = assay: MIC assay in 96-well plate format, wild-type strain
Procedure, shortened: (§1)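 Two-fold, ten-point dilutions in 7H9 with 2% DMSO; mid-log culture diluted to OD600=0.1 (1×10^7 CFU/mL). Incubated 3 days at 37 °C, shaking 110 RPM; growth = Day 3 minus Day 0 OD600, expressed as percentage of drug-free growth and plotted against concentration. Two biological replicates.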

Δarr M. abscessus = assay: MIC assay, isogenic arr-deleted strain; settings: arr-deleted strain; 90% growth inhibition
Procedure, shortened: as §1

M. abscessus Bamboo [1] = assay: MIC assay, clinical isolate Bamboo
[2] = system: M. abscessus subsp. abscessus K21; assay: MIC assay, clinical isolate K21; settings: 90% inhibition of bacterial growth
RFB-R1 M. abscessus = assay: microbe, parasite or virus in culture
M. abscessus Bamboo [3] = assay: Broth MBC90 (bMBC90); settings: broth, 5 days
From the text: Broth MIC, broth MBC90 (bMBC90), and caseum surrogate MBC90 ([…]) of clinically used antibiotics and of novel ADP-ribosylation-resistant rifabutin analogs against M. abscessus Bamboo have been evaluated.

M. abscessus Bamboo [4] = assay: Caseum surrogate MBC90 (cMBC90) kill assay
From the text: (§2) The surrogate matrix was generated as described previously from cultured THP-1 cells (ATCC TIB-202) (mBio, 2023, 14, e0059823). M. abscessus exponential cultures grown in Middlebrook 7H9 broth (Sigma Aldrich) (OD600 0.6-0.9) were spun down and resuspended in water to an OD600 of 7, 0.7, and 0.07. As described for the M. tuberculosis caseum surrogate assay (mnBio, 2023, 14, e0059823), the bacterial suspensions (at three different dilutions resulting in ˜10^9, 10^8, and 10^7 starting CFU/mL, represented by circle, square, and triangle indicators respectively) were added to the caseum surrogate in the ratio 2:1 (vol/wt), briefly homogenized with 1.4-mm zirconia beads, divided evenly into nine 1.5-mL microcentrifuge tubes, and incubated as standing cultures at 37° C. At the indicated time points, tubes were removed and used for CFU enumeration by plating on Middlebrook 7H11 agar (Sigma Aldrich). Separate tubes were used at each time point. To determine the kill curves, cultures with a starting CFU/mL of 10^8 were used (resulting in the middle curve with square indicators). Arrows indicate the time points when drugs were added and the end of the treatment. The experiment was repeated three times independently, yielding similar results. A representative example is shown. Dots and error bars represent means and standard deviations of three technical replicates, respectively.
FIGS. 29A-29M show the Dose-response kill curves against M. abscessus Bamboo in caseum surrogate. M. abscessus cultures were set up as described in the legend of FIG. 28. Bacterial cell suspensions were added to yield a starting CFU of 10^8/mL (FIG. 28, middle growth curve with square indicators). […] The shaded areas indicate drug concentration windows achieved in caseum in vivo. (Antimicrob. Agents Chemother., 2021, 65, e0050621; Antimicrob. Agents Chemother., 2022, 66, e0221221; PLoS Med., 2019, 16, e1002773; ACS Infect. Dis., 2016, 2, 251-267). The experiment was repeated twice independently, yielding similar results. A representative example is shown. Dots and error bars represent means and standard deviations of three technical replicates, respectively. Horizontal dotted lines indicate the cutoff for 1 log reduction in CFU compared to 10-day drug-free control culture. The cMBC90 values shown in Table 16 are the drug concentrations that reduce CFU by 90% relative to the CFU of drug-free controls at day 10. Since the cultures were in the stationary phase on day 5 when drug treatment started, the CFUs of the drug-free cultures at day 10 were similar to the CFUs of the drug-free cultures at day 5 (FIG. 28).
as §2, with “(doi: 10.1128/mbio.00598-23).” for “(mBio, 2023, 14, e0059823).”, “(doi: 10.1128/mbio.00598-23),” for “(mnBio, 2023, 14, e0059823),”, “CFU/mL)” for “CFU/mL, represented by circle, square, and triangle indicators respectively)”, “curves for the drugs,” for “curves,”, “used.” for “used (resulting in the middle curve with square indicators). Arrows indicate the time points when drugs were added and the end of the treatment.”, “results.” for “results. A representative example is shown. Dots and error bars represent means and standard deviations of three technical replicates, respectively.”
The experiment was repeated twice independently, yielding similar results. A representative example is shown. The cMBC90 values shown in Table 16 are the drug concentrations that reduce CFU by 90% relative to the CFU of drug-free controls at day 10. […]

[5] = 90% inhibition of bacterial growth

In the case of `CO[C@H]1/C=C/O[C@@]2(C)Oc3c(C)c(O)c4c(c3C2=O)C2=NC3(CCN(CC(C)C)CC3)NC2=C(NC(=O)/C(C)=C/C=C/[C@H](C)[C@H](O)[C@@H](C)[C@@H](O)[C@@H](C)[C@H](OC(=O)c2ccccc2)[C@@H]1C)C4=O` [5a, 25-O-benzoyl rifabutin], the “Mab 19977 MIC” value (M. abscessus ATCC 19977; [5]) was 0.053 µM, the MIC (M. abscessus ATCC 19977; M. abscessus ATCC 19977, 90% growth inhibition, read-out: WT Mab MIC) was 0.053 µM (≈ 0.0482 µg/mL) and the MIC ratio (M. abscessus ATCC 19977; WT MIC/Δarr strain MIC) was 0.9. For the same compound, the “Δarr Mab MIC” value (Δarr M. abscessus) was 0.06 µM, the “Mab Bamboo MIC” value (M. abscessus Bamboo [1]; [5]) was 0.065 µM and the MIC (M. abscessus Bamboo [1]; broth, M. abscessus Bamboo, Table 16, read-out: MIC) was 0.07 µM (≈ 0.0636 µg/mL). The “Mab K21 MIC” value [2] was 0.098 µM, the “activity against rifamycin-resistant mutant RFB-R1” value (RFB-R1 M. abscessus; RNAP point mutation) was “lost detectable activity” and the “RFB-R1 M. abscessus MIC” value (RFB-R1 M. abscessus; rpoB H447Y mutant, 90% inhibition) was >100 µM. For the same compound, the MBC (M. abscessus Bamboo [3]) was 0.30 µM (≈ 0.273 µg/mL), the cMBC90/bMBC90 (M. abscessus Bamboo [4]; 5-day assays) was 26.7 and the MBC (M. abscessus Bamboo [4]; caseum surrogate, 5 days, 90% CFU reduction vs drug-free control, read-out: cMBC90) was 8 µM (≈ 7.27 µg/mL).
